Measurements taken from US20240208961A1, “EIF4E INHIBITORS AND USES THEREOF” (PIC Therapeutics, Inc., priority 2022, published 2024).

Tests used:
[1] = tested on: MM.1S cells; experiment: 5 day viability assay in MM.1S cells, I-11 and dexamethasone (Example 7); format: cell-based
Method: (§1) Compound I-11 was studied in the context of dexamethasone combinations, which is used clinically in early Multiple Myeloma prior to the emergence of steroid resistance and is a common backbone therapy. The MM.1S cell line is a steroid sensitive line, and the MM.1R line is the corresponding cell line which has been driven to steroid resistance. The procedure for these studies was as follows:
(§2) Day 1: Cell Seeding and Compound Dosing
(§3) • Cells were seeded 2×10^5 in 96-well cell culture treated tissue culture plates: 87.5 μL/well; MM.1 S and MM.1R • A 5-fold serial dilution of each compound in DMSO (0-25 mM) was prepared in compound storage plates (stored at −80° C. if not to be used immediately). An 8-point curve was used for compound I-11, and a 6-point curve was used for dexamethasone (0-25 mM). • Cells were rinsed with 1% FBS Media and replaced with 87.5 μL media prior to dosing. • DMSO compound dilution series was diluted in 1% FBS media—2 μL compound in 123 μL media to give a 16× final concentration. Dosing across the plate columns 1-12 (compound I-11 0-400 μM), 6.25 μL 16× in media/well. Dosing down plate rows (columns 1-6 dexamethasone 0-400 μM), 6.25 μL 16× compound in media per well. • Cells were dosed with 12.5 μL for both compounds, with 2 replicates of dosing matrix per 96-well plate. Final volume cells and compound was 100 μL/well. • Media blank 100 μL/well×8 was set up. • All plates were incubated at 37° C.
(§4) Day 6: 5 Day Viability Assay
(§5) • Alamar Blue viability reagent was added (10 μL per well) and incubated for 3 hours at 37° C. prior to fluorescence detection (Ex560 nm/Em590 nm) on a Varioskan Lux multimode plate reader.

[2] = tested on: MM.1R cells; experiment: 5 day viability assay in MM.1R cells, I-11 and dexamethasone (Example 7); format: cell-based
Method: as §1, §2, §3, §4, §5

[3] = tested on: 4E-BP1; experiment: Hyperphosphorylation of 4E-BP1 in multiple myeloma cell line MM.1R (FIG. 11A); format: cell-based; settings: MM.1R cells, 2 hours
[4] = tested on: ZR-75-1 tumor; experiment: ZR-75-1 subQ CDX model; format: in vivo; settings: female BALB/c nude mice, 50 mg/kg, PO, QW, FIG. 14
Method: Female BALB/c nude mice were inoculated with estrogen tablets (0.36 mg/pellet, 60 days to release) 48 hours before cell inoculation. The xenograft model was established by implantation of […] of ZR-75-1 tumor cell suspension (5×10^6 cells/mouse, with 50% Matrigel) subcutaneously into the right subaxillary of female BALB/c nude mice aged 6-8 weeks. When the average tumor volume reached 153.10 mm^3, the tumor-bearing mice were randomized into treatment groups. The groups were treated as follows: Group 1: vehicle, PO, QW; Group 2: Tamoxifen 10 mg/kg, PO, QD; Group 3: Compound I-11 50 mg/kg, PO, QW.
Cell culture: The ZR-75-1 (breast, ductal carcinoma) cell was purchased from (ATCC® CRL-1500™). The base medium for this cell line ATCC-formulated RPMI-1640 Medium. To make the complete growth medium, the base medium was supplemented with 10% heat inactivated FBS and 1% PS, maintained at 37° C. in an atmosphere containing 5% CO2 in air. The tumor cells were routinely subcultured at a ratio of 1:1.5 to 1:3 every 3-6 days. Cell concentration at harvest time was 5.39×10^7 cells/mL and cell viability was 94.3% before inoculation.
Tumor inoculation: BALB/c nude mice were used in this study. Each mouse was inoculated with estrogen tablets 48 hours before cell inoculation (0.3 mg/pellet, 60 days to release). […]

SMILES: CC(C)Cc1sc(Nc2ncc(-c3cccs3)cc2C(=O)O)nc1C(C)(C)C [Compound I-11]
- IC50 ([1]; Homo sapiens, MM1.S, 120 h, MM.1S cells (steroid sensitive), 5 days, Alamar Blue, read-out: IC50 (μM), Viability Assessment (5 Days) in MM.1S Cells): 0.423 µM
- viability of MM.1S cells ([1]; MM.1S cells, FIG. 12): significant decreases in viability
- impact on viability in combination with dexamethasone ([1]; MM.1S cells, dosing matrix I-11 x dexamethasone, FIG. 13): additive to dexamethasone
- IC50 ([2]; 120 h, MM.1R cells (steroid resistant), 5 days, Alamar Blue, read-out: IC50 (μM), Viability Assessment (5 Days) in MM.1R Cells): 0.179 µM
- viability of MM.1R cells ([2]; MM.1R cells, FIG. 12): significant decreases in viability
- relative levels of hyperphospho-4E-BP1 [3]: significantly lowers relative levels of hyperphospho-4E-BP1
- tumor size growth [4]: reduced tumor size growth
